From patent publication US12053606B2, “Opioid overdose rescue device” (Celero Systems, Inc., priority 2019, dated 2024)

Assays:
[1] = test system: respiratory rate; test: Induced morphine overdose and rescue with nalmefene in anesthetized porcine animal model; assay type: in vivo
Text: The following examples provides data collected from an opioid overdose rescue device during overdose and rescue animal studies. The opioid overdose rescue device included a substrate having a PPG sensor, accelerometer and microcontroller disposed thereon, which was coupled to a substrate having a radio, chip antenna, power management components, and magnet sensor (so the device could be turned on and off without direct contact) disposed thereon.
FIGS. 6A and 6B show an example PPG sensor recording from the intestines in an anesthetized porcine animal model during an overdose and recovery study. The PPG sensor was endoscopically placed into the small intestine and anchored to intestinal tissue with 2 endoclips—one on each side of the device.
Baseline data was collected for 8 minutes. Then 60 mg of IV morphine was administered over 3 minutes (20 mg each minute for 3 minutes). The respiratory rate as measured by the lab vitals monitoring equipment decreased eventually to zero, indicated respiratory failure. One minute after respiratory failure, 50 mg nalmefene in solution was administered endoscopically directly into the intestines. Within 4 minutes of nalmefene delivery breathing recovered and eventually returned to pre-overdose levels. […] In certain aspects, a method of mitigating the effects of an opioid overdose could involve determining when a measured respiratory rate drops below a threshold (e.g. 8 breaths per minute) for a duration of time (e.g. 30 seconds) and commanding release of a rescue medication.
In a different study than referenced in FIG. 7, the device was endoscopically placed and anchored in the animal's intestine in a similar manner. […] As with the PPG data, a measured respiratory rate obtained from the motion sensing (i.e. accelerometer) data in the intestine could be used to detect an opioid overdose and trigger delivery of a rescue medication.

[2] = test system: opiate receptors—μ, κ and δ; conditions: cited from earlier work
[3] = cited from earlier work

Compound | time after nalmefene delivery until breathing recovered ([1]; PPG sensor study (FIG. 7), 50 mg nalmefene in solution endoscopically into the intestines, one minute after respiratory failure from 60 mg IV morphine) [min] | time after nalmefene delivery until respiratory rate restored to normal levels ([1]; accelerometer study (FIG. 8), 50 mg nalmefene in solution endoscopically delivered after respiratory failure from 60 mg IV morphine) [min] | antagonist activity at opiate receptor types [2] | oral bioavailability [3] [%] | respiratory rate after morphine (lab vitals monitor) ([1]; 60 mg IV morphine over 3 minutes, zero indicates respiratory failure)
C=C1CC[C@@]2(O)[C@H]3Cc4ccc(O)c5c4[C@@]2(CCN3CC2CC2)[C@H]1O5 [nalmefene] | ≤ 4 | 14 | antagonist activity against all three types of opiate receptors | 41 | 
CN1CC[C@]23c4c5ccc(O)c4O[C@H]2[C@@H](O)C=C[C@H]3[C@H]1C5 [morphine] |  |  |  |  | zero
